Legend:
[1] = system: Normal human epidermal keratinocytes (NHEK); assay: Inhibition of NHEK proliferation, BrdU incorporation (in vitro DNA synthesis); type: cell-based; settings: 18-24 hours; for inhibition at 100 µM: 10^-4 M; for inhibition at 10 µM: 10^-5 M
Description: Cells: Normal human epidermal keratinocytes (NHEK, Clonetics Corp., San Diego, Calif.).
Labelling Reagent: Aqueous solution of 5-bromo-2'-deoxyuridine and 5-fluoro-2'-deoxyuridine (Amersham Corp., II).
Peroxidase-anti-mouse Immunoglobulin (Ig from pooled sheep antisera, Amersham Corp., II).
Peroxidase substrate: ABTS (2,2'-azino-di-(3-ethyl-benzthiazoline sulphonate)! Amersham Corp., II).
Compounds: Compounds are dissolved in absolute ethanol (final concentration≤0.1%). Various drug concentrations are prepared in thymidine free keratinocyte growth medium (KGM without hydrocortisone, Clonetics Corp., Calif.) in the presence of BrdU.
Dynatech MR 7000 microplate reader with 410 nm filter.
Keratinocytes are seeded into 96-well flat bottom (6.4 mm diameter) culture dishes at 5,000 cells/well. The cells are allowed to grow (2-3days) and then dosed with various concentrations of compounds prepared in KGM without thymidine, without hydrocortisone in the presence of BrdU (1:200). After 18-24 hours at 37° C., 5% CO2, the cells are washed with warm PBS and fixed with acetic acid/ethanol for 30 minutes at room temperature. After washing the wells with PBS/0.1% Tween-20, the remaining electrostatic sites on the polystyrene plates are blocked by 3% BSA in PBS/0.1% Tween-20. Anti-bromodeoxyuridine antibody solution with nuclease for denaturing DNA is added to each well and allowed to incubate for 2 hours at 37° C., 5% CO2. The plates were again washed with PBS/0.1% Tween-20 and then incubated at room temperature with peroxidase lined anti-mouse immunoglobulin (1:600). After washing off the second antibody, 1 mM ABTS substrate solution is added to all wells until the desired color intensity (green) is achieved. The color development is stopped by the addition of a Stopping Agent. The absorbance is then measured at 410 nm with a microplate reader using cells in wells not exposed to BrdU as blanks.
The intensity of the color reaction is proportional to the BrdU incorporated by proliferating cells. The amount of BrdU incorporated in treated cells in wells is compared to those of untreated controls as follows: [formula]

[2] = Acute toxicity after intraperitoneal administration, NMRI mouse; settings: in vivo, ip, 3 weeks, Litchfield and Wilcox
Description: The acute toxicity after intraperitoneal administration of the test substances was determined with NMRI mice (20 to 25 g) and SD rats (120 to 195 g). The test substance was suspended in a 1% strength sodium carboxymethylcellulose solution. The different dosages of the test substance were administered to the mice in a volume of 10 ml/kg of body weight and to the rats in a volume of 5 ml/kg of body weight. Per dosage, 10 animals were used. After 3 weeks, the acute toxicity was determined by the method of Litchfield and Wilcox.

[3] = system: psoriasis patients; settings: cited from earlier work
[4] = European Patent 13,376; cited from earlier work

**Q.** Which results are given for C/C(O)=C(\C#N)C(=O)Nc1ccc(C(F)(F)F)cc1 [Compound 2, N-(4-trifluoromethylphenyl)-2-cyano-3-hydroxycrotonamide]?
**A.** inhibition at 100 µM [1]: 84%; inhibition at 10 µM [1]: 49%; IC50 [1]: 15.5 µM; LD50 at 504 h [2]: 150 mg/kg

**Q.** For cyclosporine A, which “most limiting side effect” value ([3]; in vivo, po) is on record?
**A.** kidney dysfunction

**Q.** And the side effects ([3]; in vivo, po)?
**A.** a number of side effects, most of which are transient and not serious

**Q.** What about the “success rate in severe psoriasis” value ([3]; oral, patients with severe psoriasis) of the same compound?
**A.** high success rate

**Q.** For Cc1oncc1C(=O)Nc1ccc(C(F)(F)F)cc1 [Compound 1, N-(4-trifluoromethylphenyl)-5-methylisoxazole-4-carboxamide], which inhibition at 100 µM [1] is on record?
**A.** 87%

**Q.** And the inhibition at 10 µM [1]?
**A.** 22%

**Q.** What about the inhibition at 1 µM ([1]; 10^-6 M) of the same compound?
**A.** 12%

**Q.** And the IC50 [1]?
**A.** 18 µM

**Q.** What about the anti-inflammatory property [4] of the same compound?
**A.** anti-inflammatory
